In the METLIN SMRT retention time set (Domingo-Almenara et al. 2019):

Assay: gradient 5% acetonitrile 3 min, to 50% in 2 min, to 85% in 15 min, held 3 min, 100 µL/min
Conditions: column: Zorbax Extend-C18 2.1 x 50 mm; eluents: water / acetonitrile, 0.1% formic acid
Method in brief: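 Pure standards were run in mixtures of ~100 molecules by HPLC coupled to a quadrupole time-of-flight mass spectrometer. The column was a Zorbax Extend-C18 (2.1 × 50 mm, 1.8 μm) at 100 μL/min, with water and acetonitrile each containing 0.1% formic acid, in positive and negative ionization mode. Dead and dwell volumes were 40 μL and 900 μL. Retention time was taken from computationally picked adduct peaks, each manually inspected, with data collected over 3 months.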

Row | SMILES | RP-LC retention time
1 | CCn1c(=O)c2c(cc(C)n2C)n(CC(=O)Nc2cc(Cl)ccc2OC)c1=O | 888 s
2 | Cc1ccc2c(Nc3ccc(F)cc3C)c(-c3nc(C)no3)cnc2n1 | 756 s
3 | O=C(N[C@H]1C[C@@H]2C[C@H]1N(S(=O)(=O)c1ccc3c(c1)OCCO3)C2)c1cccs1 | 816 s
4 | CC(C)(C)NC(=O)c1ccc(-n2cc(CNC(=O)C3CC3)cn2)cc1 | 711 s
5 | O=C(Nc1ccccc1F)N1C[C@H]2C[C@H](C1)[C@H]1CCCC(=O)N1C2 | 627 s
6 | COCc1nc(C2CCN(C(=O)c3ccoc3)C2)no1 (configuration not stated) | 644 s
7 | CCOC(=O)c1c(C)n(C)c2ccc(O)cc12 | 803 s
8 | c1coc(CN2CC(Oc3ccc(-c4noc(C5CC5)n4)cc3)C2)c1 | 684 s
9 | Cc1noc(C)c1S(=O)(=O)NCC(c1cccnc1)c1cn(C)c2ccccc12 (configuration not stated) | 700 s
10 | CCOc1cccc(CNC(=O)c2cnc(-c3ccccc3)nc2-c2ccncc2)c1 | 855 s
11 | CN1CCC(NC(=O)C2CCc3sc(C(=O)N4CCCCC4)cc3C2)CC1 (configuration not stated) | 587 s
12 | O=C(NCc1ccccc1)C1CCN(C(=O)c2ncn3c2COC(c2ccccc2)C3)CC1 (configuration not stated) | 760 s
13 | Cc1cccc(Sc2nccnc2N2CCC(C(=O)NCC3CCCO3)CC2)c1 (configuration not stated) | 888 s
14 | CCOc1ccc(-c2nc(CN(c3ccccc3)S(=O)(=O)c3cccs3)c(C)o2)cc1OC | 1120 s
15 | CCOC(=O)C1CCC(CNC(=O)Nc2ccc(-c3nc(-c4ccccc4)co3)cc2)CC1 (configuration not stated) | 1100 s
16 | CCC(=O)Nc1ccc(-n2cnc(C(=O)NCC(C)C)c2)nc1 | 667 s
17 | O=C1NCCCn2cc(S(=O)(=O)Nc3ccc(F)cc3F)cc21 | 641 s
18 | CC(=O)Nc1ccc(SCC(=O)c2ccc(Cl)cc2)nn1 | 756 s
19 | O=C(CSc1nnc(-c2ccc(Cl)cc2)o1)Nc1nccs1 | 867 s
20 | COCCNS(=O)(=O)c1cc2c(cc1C)CCN2C(C)=O | 657 s
21 | O=C(c1cnccn1)N1CCCCC1c1nc(-c2ccc(F)cc2)no1 (configuration not stated) | 918 s

Row | SMILES | RP-LC retention time
22 | O=C(NCC1CCCO1)c1ccc(NC(=O)C2CCC2)cc1N1CCCCC1 (configuration not stated) | 617 s
23 | O=C(C1CCCN(c2ccc(-c3ccccc3)nn2)C1)N1CCN(C2CCCCC2)CC1 (configuration not stated) | 597 s
24 | Cc1[nH]c(C(=O)N2CCCC(C(=O)NCCCN3CCOCC3)C2)c(C)c1C(=O)OC(C)C (configuration not stated) | 608 s
25 | Cn1c(SCC(=O)N2CCCCC2)nnc1-c1ccc2c(c1)OCCCO2 | 664 s
26 | O=C(Nc1ccccc1F)c1c(O)c2cccnc2n(-c2cccc(F)c2)c1=O | 1250 s
27 | O=C([C@@H]1C[C@H](Oc2ccccc2)CN1C(=O)c1ccco1)N1CCCC1 | 603 s
28 | COCCOC(=O)C1=C(C)NC2=C(C(=O)C(C(=O)OC)C(C)C2)C1c1cccc(F)c1 (configuration not stated) | 832 s
29 | COc1nccc(N2CCC(CC(=O)NCc3ccc(OC)c(OC)c3)CC2)n1 | 575 s
30 | COc1ccc(NC(=O)C2CCc3sc(C(=O)N4CCCC4)cc3C2)cc1OC (configuration not stated) | 680 s
31 | Cc1nnc2sc(SCc3ccc(Cl)cc3Cl)nn2c1=O | 869 s
32 | O=C(Cc1ccc(F)cc1)N1CCC2(CC1)N=C(c1ccccc1)NO2 | 792 s
33 | O=S(=O)(c1cccnc1)N1CC(c2noc(C3CCCN3CC3CC3)n2)C1 (configuration not stated) | 592 s
34 | COCC(=O)Nc1nc(-c2ccc3c(c2)NC(=O)C(C)O3)cs1 (configuration not stated) | 691 s
35 | CN(C)c1ccc(CNc2ncccc2-c2nnc(-c3ccccc3)o2)cc1 | 884 s
36 | CCCc1nc(NCc2ccccn2)ncc1C(=O)O | 571 s
37 | CCC(=O)N1CCc2cc(-c3ccc(C(=O)NCCCN4CCOCC4)cc3)ccc21 | 628 s
38 | Cc1ccc(CNC(=O)CN2C(=O)CCn3nc(-c4cn(C)c5ccccc45)cc32)o1 | 806 s
39 | CN1CCN(CCNC(=O)CCCN2C(=O)C(c3ccccc3)Oc3cccnc32)CC1 (configuration not stated) | 605 s
40 | COc1ccc(-c2nc(Cn3ccn4nc(-c5ccccc5)cc4c3=O)c(C)o2)c(OC)c1 | 1030 s
41 | Cc1cc(C)cc(-n2ccn(Cc3nc(-c4ccc(C(C)(C)C)cc4)no3)c(=O)c2=O)c1 | 1130 s
42 | Cc1cccc(-c2noc(Cn3ncn4nc(-c5ccc(C)cc5C)cc4c3=O)n2)c1 | 878 s

Row | SMILES | RP-LC retention time
43 | O=C(c1ccc2c(c1)nnn2CCN1CCOCC1)N1CCSCC1 | 564 s
44 | CN1CCC(NC(=O)C2CCc3sc(C(=O)N4CCOCC4)cc3C2)CC1 (configuration not stated) | 606 s
45 | COc1ccc(OC)c2[nH]c(C(=O)N3CCCC3)cc12 | 823 s
46 | CCOC(=O)C1CCN(Cc2nc(-c3ccc(N4CCC(C)CC4)nc3)no2)CC1 | 745 s
47 | Cc1nn(CC(=O)N(C)Cc2ccco2)c(=O)c2c(C)n(-c3ccccc3)nc12 | 820 s
48 | COc1cc(C2CC(=O)c3c([nH]c(C(=O)OCC4CCCCC4)c3C)C2)cc(OC)c1OC (configuration not stated) | 1180 s
49 | CC1CCN(C(=O)c2cn(-c3cc(-c4nc(C5CC5)no4)ccn3)cn2)CC1 | 907 s
50 | CC(C)c1nc2ccc(CCC(=O)NC(C)c3ccccc3)cc2[nH]1 (configuration not stated) | 610 s
51 | COc1cc2c(cc1OC)C(C(=O)Nc1ccc(F)cc1F)C(c1cccs1)N(C)C2=O (configuration not stated) | 827 s
52 | COc1ncc(C(=O)NCc2ccc(N(C)C)cc2)cn1 | 564 s
53 | COc1ccc(C(=O)N2CCCn3nc(-c4cccs4)cc3C2)c(OC)c1 | 798 s
54 | CC(=O)N=c1sc(S(N)(=O)=O)nn1C | 644 s
55 | CC1CCN(C(=O)CN2C(=O)C3CCCCN3c3ccc(C(=O)N4CCCC4)cc32)CC1 (configuration not stated) | 815 s
56 | CCCCN(C)C(=O)Cn1c(CNC(=O)c2ccco2)nc2ccccc21 | 629 s
57 | CC(C)N1CCC(CC(=O)N2CCc3c(c(-c4nc(-c5ccccc5)no4)nn3C)C2)CC1 | 654 s
58 | COc1ccc(OC)c(NC(=O)c2csc(-c3ccc(C)n3C)n2)c1 | 1230 s
59 | O=C(Nc1ccccc1[N+](=O)[O-])C(=O)N1CCN(Cc2ccc3c(c2)OCO3)CC1 | 592 s
60 | CCOc1ccccc1CN1C(=O)c2ccccc2C1C(=O)NC(C)CC (configuration not stated) | 899 s
61 | Cn1cc(-c2nc(C(=O)Nc3ccc(F)cc3F)cs2)c2cccnc21 | 1070 s

Second part, the compound after the results:

Row | RP-LC retention time | SMILES
62 | 639 s | Cc1ccc(C(CC(=O)NCCCN2CCCC2)N2Cc3ccccc3C2=O)cc1 (configuration not stated)
63 | 992 s | COc1ccccc1-c1nnc(-c2ccc(Cl)c(S(=O)(=O)N3CCCC3)c2)o1
64 | 1190 s | Cc1ccc(S(=O)(=O)c2cnc(N3CCN(c4cccc(Cl)c4)CC3)nc2N)cc1
65 | 608 s | Cn1cc(CCN2CCN(S(=O)(=O)c3ccccc3F)CC2)c2cccnc21
66 | 738 s | COc1ccc(C(=O)N2CCC3(CC2)NC(=O)c2cccc(Cl)c2N3)cc1
67 | 998 s | Cc1ccc(CSc2nnc3c(S(=O)(=O)N4CCN(c5ccc(F)cc5)CC4)cccn23)cc1
68 | 1200 s | Cc1ccc(N2CC(c3noc(-c4cc(C)cc(C)c4)n3)CC2=O)cc1 (configuration not stated)
69 | 596 s | O=C(NCc1cccnc1)c1nnc(-c2ccc(S(=O)(=O)N3CCOCC3)cc2)o1
70 | 857 s | CC1=C(c2ccc(F)cc2)S(=O)(=O)N=C1N1CCCN(C(=O)c2ccc(C)s2)CC1
71 | 847 s | O=C(CSc1nnc(-c2cccc(S(=O)(=O)N3CCOCC3)c2)o1)c1ccccc1
72 | 614 s | CCOC(=O)c1cc(S(=O)(=O)N(C)CC(=O)N2CCN(c3ccccn3)CC2)cn1C
73 | 659 s | O=C(Nc1cccc(-c2ccc(N3CCOCC3)nn2)c1)Nc1ccc2c(c1)OCCO2
74 | 888 s | O=C(c1ccc(Cl)cc1)N1CCN(C(=O)c2nnn3c2COC(c2ccccc2)C3)CC1 (configuration not stated)
75 | 769 s | Cc1cccc(N2CCN(C(=O)c3c(C)sc4ccn(C)c(=O)c34)CC2)c1
76 | 891 s | Cc1ccc(C)c(S(=O)(=O)N2CCC(c3nc(C(=O)N4CCOCC4)c(C)o3)CC2)c1
77 | 969 s | CCOC(=O)c1cccc(N2C=C(C#N)S(=O)(=O)c3ccc(C)cc32)c1
78 | 947 s | O=C(O)c1ccc(Nc2ncc3c(n2)-c2ccc(Cl)cc2C(c2c(F)cccc2F)=NC3)cc1
79 | 612 s | COc1ccc(C(CC(=O)N2CCN(c3ccccn3)CC2)N2Cc3ccccc3C2=O)cc1OC (configuration not stated)
80 | 1070 s | CSc1cccc(N2C(=O)C3N=NN(Cc4nc(-c5ccc(Cl)cc5)no4)C3C2=O)c1 (configuration not stated)
81 | 770 s | O=C(Nc1cccc(-c2ccc(N3CCOCC3)nn2)c1)Nc1cccc(Cl)c1F
82 | 627 s | Fc1ccccc1-c1nc(-c2ccc3c(c2)ncn3CCN2CCOCC2)no1
83 | 1050 s | CC1(C)CC(=O)c2cn(-c3ccccc3)c(=O)c(C(=O)Nc3ccc(Cl)cn3)c2C1
84 | 974 s | Cc1cc(Cl)ccc1OCc1nc(-c2ccc3c(c2)nnn3CCC(=O)N2CCOCC2)no1
85 | 751 s | COCc1nncn1C1CCN(S(=O)(=O)c2cccc(OC)c2)CC1
86 | 789 s | Cc1ccc(C)c(NC(=O)CN2CCN(C(=O)Nc3ccc(Br)cc3)CC2=O)c1
87 | 1010 s | Clc1ccc(OCc2nc(-c3cccc(-c4ccn[nH]4)c3)no2)cc1
